In patent US8728787B2, “Fungal laccases and uses thereof” (Academia Sinica, priority 2010, dated 2014):
Read-outs that look alike come from different tables or passages of the source. Blank lines part the entries; values can stand above or below the molecule they belong to.

Key:
[1] = system: Lentinus sp. laccase, wild type, purified from culture; assay: Laccase kinetics of purified Lentinus sp. laccase; type: biochemical
Procedure: All chemicals used in this study were obtained from Merck (Darmstadt, Germany) or Sigma-Aldrich (St. Louis, Mo. USA). All spectrophotometric measurements were performed using the Beckman DU 640 spectrophotometer (Beckman Coulter, USA).
Kinetic parameters Km and Vmax were determined as follows. […] The oxidation reactions of guaiacol and 2,6-DMP were monitored by determining OD436 values (ε=6,400 M^−1cm^−1) and OD468 values (ε=49,600 M^−1 cm^−1), respectively. The kinetic parameters were determined by nonlinear regression analysis (ENZFITTER software program, Elsevier-Biosoft, Cambridge, UK) using the Michaelis-Menten model.
Kinetic parameters were determined following conventional methods. See also Example 1 above.

Panus tigrinus laccase = conditions: ABTS as substrate, optimum 30 °C at pH 3.5, cited from earlier work
[2] = system: Panus(Lentinus)tigrinus 8/18 laccase; conditions: ABTS as substrate; cited from earlier work
Agaricus blazei laccase = conditions: ABTS as substrate, optimum 25 °C at pH 2.3, cited from earlier work
[3] = system: Pycnoporus sanguineus laccase; conditions: ABTS as substrate, optimum 25 °C at pH 3.0, cited from earlier work
[4] = system: Trametes versicolor laccase; conditions: ABTS as substrate, optimum 55 °C at pH 4.0, cited from earlier work
[5] = system: Trametes C30 laccase LAC2; conditions: ABTS as substrate, optimum 55 °C at pH 5.7, cited from earlier work
Cerrena unicolor laccase = conditions: ABTS as substrate; optimum 70 °C at pH 3.5; cited from earlier work
[6] = system: Pleurofus sajor-caju laccase; conditions: ABTS as substrate, optimum 40 °C at pH 5.0, cited from earlier work
[7] = system: Trametes pubescens laccase LAP2; conditions: ABTS as substrate, optimum 25 °C at pH 4.0, cited from earlier work
[8] = Laccase activity in culture media of recombinant P. pastoris; type: biochemical; conditions: expressed in P. pastoris X-33; 13-26 day (Lcc1-3) or 18-day (LccA) cultivation
Description: The EasySelect™ Pichia Expression System (Invitrogen) was used in this study for expression of Lcc1, Lcc2, and Lcc3 laccases. cDNA fragments coding for these three laccases were cloned into Pichia expression vector pPICZA or pPICZaB via EcoRI and NotI restriction sites. More specifically, the lcc1 gene coding for Lcc1 precursor (including a signal peptide sequence) was cloned into pPICA to generate expression plasmid pPICZA-lcc1 and the lcc2 and lcc3 genes coding for mature Lcc2 and Lcc3 were cloned into pPICZaB to obtain expression plasmids pPICZaB-lcc2 and pPICZaB-lcc3, respectively. The three expression plasmids were introduced into P. pastoris X-33 cells following the method described in Invitrogen's protocol. Positive transformants were cultured in BMMY (1% yeast extract, 2% peptone, 100 mM potassium phosphate, pH 6.0, 1.34% yeast nitrogen base, 0.00004% biotin, and 0.5% methanol) at 25° C., 200 rpm for 12-26 days. Methanol was added to the culture media daily to reach a final concentration of 0.5%. During the cultivation, 1 ml of the supernatant was collected at various time points. The laccase activity and cell density in the supernatant were determined following the method described above or routine procedures.
pPICZ-lccA was introduced into Pichia pastoris strain X-33 host cells (Invitrogen) and positive transformants were selected for LccA expression. Briefly, a positive transformant was cultured in BMMY medium containing 1% yeast extract, 2% peptone, 1.34% yeast nitrogen base, 0.00004% biotin, and 0.5% methanol at 25° C. and 200 rpm for 20 days. Methanol was daily added to reach a final concentration of 0.5%. Within the 20-day cultivation, 1 ml of the supernatant was collected; laccase activity and cell growth were determined.

[9] = substrate: CCn1c(=NN=c2sc3cc(S(=O)(=O)O)ccc3n2CC)sc2cc(S(=O)(=O)O)ccc21; assay: purified protein, by the assay type; conditions: other: ABTS as substrate, 50 mM citrate buffer, 50 °C, pH 3.0
[10] = substrate: COc1ccccc1O; assay: Laccase kinetics of purified Cerrena sp. WR1 Lcc3; type: biochemical; conditions: other: guaiacol as substrate, 50 mM citrate buffer, 70 °C, pH 4.5, pH 4.5
[11] = substrate: COc1cccc(OC)c1O; assay: Laccase kinetics of purified Cerrena sp. WR1 Lcc3; type: biochemical; conditions: other: 2,6-DMP as substrate, 50 mM citrate buffer, 70 °C, pH 3.5, pH 3.5
[12] = guaiacol as substrate, optimum 70 °C at pH 5.0
[13] = 2,6-DMP as substrate, optimum 60 °C at pH 3.5
[14] = ABTS as substrate, optimum 70 °C at pH 2.5

Km [1, 12]: 524 µM
kcat [1, 12]: 305.5 s⁻¹
Molecule: COc1ccccc1O [guaiacol]

Molecule: COc1cccc(OC)c1O [2,6-DMP, 2,6-dimethoxyphenol]
Km [1, 13]: 434 µM
kcat [1, 13]: 121.9 s⁻¹

Km [1, 14]: 8.4 µM
kcat [1, 14]: 2016.5 s⁻¹
Molecule: CCn1c(=NN=c2sc3cc(S(=O)(=O)O)ccc3n2CC)sc2cc(S(=O)(=O)O)ccc21 [ABTS, 2,2′-azino-bis-(3-ethylbenzthiazoline-6-sulfonic acid)]
Km (Panus tigrinus laccase; Table 2): 31 µM
Km (Panus tigrinus laccase; Table 4): 31 µM
kcat (Panus tigrinus laccase): 185.69 s⁻¹
Km [2]: 33.4 µM
Km (Agaricus blazei laccase; Table 2): 63 µM
Km (Agaricus blazei laccase; Table 4): 63 µM
kcat (Agaricus blazei laccase): 21 s⁻¹
Km ([3]; Table 2): 77 µM
Km ([3]; Table 4): 77 µM
kcat [3]: 1.155 s⁻¹
Km ([4]; Table 2): 37.3 µM
Km ([4]; Table 4): 37.3 µM
kcat [4]: 351.3 s⁻¹
Km ([5]; Table 2): 536 µM
Km ([5]; Table 4): 536 µM
kcat [5]: 683.33 s⁻¹
Km (Cerrena unicolor laccase): 800 µM
Km ([6]; Table 2): 56 µM
Km ([6]; Table 4): 56 µM
kcat [6]: 520.24 s⁻¹
Km ([7]; Table 2): 43 µM
Km ([7]; Table 4): 43 µM
kcat [7]: 350 s⁻¹

B1: Lcc2: laccase from Cerrena sp. WR1, GenBank accession no. GQ899202; SEQ ID NO:2 mature, 8 precursor (protein)
chain: AIGPVTDLTITNATISPDGFSRQAVLAGGVFPGPLITGNKGDNFQINVVNSLENSDMLKSTTIHWHGFFQKGTNWADGPAFVNQCPIATGNSFLYNFNADDQAGTFWYHSHLSTQYCDGLRGPMVVYDPNDPHASLYDVDDESTVITLADWYHTLARLGAAFPTADATLINGLGRYSDGTTSDLAVITVESGKRYRFRLVNISCDPNYTFSIDNHTFTVIEVDGVNHAALDVDEIQIFAGQRYSFVLTANQTVDNYWIRANPNLGTTGFDNGINSAILRYSGANETEPTTTQTTATAALSEASLVPLEDPAAPGEAVAGGVDYALNLAFAFDGANLDFTVNGETYVSPTVPVLLQILSGASSVSDLLPAGSVYSLPSNSTIELSMPGGVVGGGHPLHLHGHAFSVVRSAGSDTYNYVNPPRRDVVNIGAAGDNVTIRFTTDNPGPWFLHCHIDFHLEAGFAVVFAEDFNATASSNTVTTEWSNLCTTYDALSADDQ
modifications: Cerrena sp
laccase activity in culture media [8]: ~160 U/L

B2: Lcc1: laccase from Cerrena sp. WR1, GenBank accession no. GQ899201; SEQ ID NO:1 mature, 7 precursor (protein)
chain: AIGPVTDLEITNGTISPDGYSRAAVLAGGSFPGPLITGNKSDNFQINVVNSLADSDMLKSTTVHWHGFFQKGTNWADGPAFVNQCPIATGNSFLYNFNATDQAGTFWYHSHLETQYCDGLRGPMVVYDPDDPHADLYDVDDDSTVITLADWYHTLARLGAAFPTSDATLINGLGRYSDGNTTDLAVITVESGKRYRFRLVSISCDPNFTFSIDNHTMTIIEADAVNYTPLDVDEIQIFAGQRYSFILTANQTVDNYWIRADPNVGTTGFDNGINSAILRYSGADEVEPTTNQTTSTNPLVEANLVPLDGAAAPGEAVAGGVDYALNLALAFDGTNLDFTVNGYEYTSPTVPVLLQILSGASSVDDLLPSGSIYSLPSNSTIELSIPALAVGAPHPIHLHGHTFSVVRSAGSTTYNYDNPPRRDVVSIGTATDDNVTIRFTTDNPGPWFLHCHIDFHLEAGFAVVFAEDFNDTASANTVTTEWSDLCTTYDALSSDDL
modifications: Cerrena sp
laccase activity in culture media [8]: approximately 800 U/L

B3: Cerrena sp. WR1 laccase Lcc3, wild type (mature SEQ ID NO: 3; precursor SEQ ID NO: 9; GenBank GQ899203) (Cerrena sp. WR1) (protein)
chain: AIGPVADLHITDANVSPDGFTRPAVLAGGTFPGPLITGKQGDNFQINVIDELTDATMLKSTSIHWHGIFQKGTNWADGPSFVNQCPITTGNSFLYDFSVPDQTGTYWYHSHLSTQYCDGLRGALVIYDDNDPHKDLYDVDDETTVITLADWYHTQARLITGVPVSDATLINGLGRYLNGPTDAPLAVITVDQGKRYRFRLVSISCDPNFVFSIDNHSMTVIEVDAVNSQPLVVDSIQIFAAQRYSFILNANQSVGNYWIRANPNLGNTGFTNGINSAILRYNGAPVAEPNTTQTASTNPLNEVNLHPLVPTPVPGTPQPGGVDVVQNLVLGFSGGKFTINGVAFSPPTVPVLLQILSGTTTAQDLLPTGSIIELPLGKTVELTLAAGVLGGPHPFHLHGHTFHVVRSAGQTTPNYVDPILRDTVNTGAAGDNVTIRFTTDNPGPWFLHCHIDWHLEAGFAVVFAEGLNQTNAANPTPDAWNNLCDLYNALPAGDQ
notes: WR1 culture supernatant (Q Sepharose); precursor 516 aa with 21-residue signal peptide
Km [9]: 3.27 µM
kcat [9]: 934.6 s⁻¹
Km [10]: 849.1 µM
kcat [10]: 148 s⁻¹
Km [11]: 392.7 µM
kcat [11]: 109 s⁻¹
kcat/Km [11]: 280000 M⁻¹ s⁻¹

B4: LccA: laccase from Lentinus sp., GenBank accession no. FJ693715; SEQ ID NO:4 mature, 10 precursor (protein)
chain: GIGPIASLVVTDAQISPDGYLRDAIVTNGVFPAPLITGRKGDHFQLNVVDSMTNHTMLKSTSIHWHGFFQKGTNWADGPAFVNQCPISSGHSFLYDFHVPDQAGTFWYHSHLSTQYCDGLRGPMVVYDPNDPHANLYDIDNDSTVITLADWYHVAAKLGPRFPLGADATLINGKGRSPATPTAALSVINVVKGKRYRFRLVSISCDPNYVFSIDNHTMTVIEADTVNTQPLAVDSIQIFAAQRYSFILNANQPVDNYWIRANPNFGNVGFTDGINSAILRYTGAALVEPSATTAPTLSNPLVETNLHPLAPMPVPGQPVSGGVDKAINFAFNFDGTDFFINGASFVPPTVPVLLQIMSGASTAQDLLPSGSVYPLPSNATIELSFPATAAAPGAPHPFHLHGHVFAVVRSAGSTTYNYNNPIWRDVVSTGTPAAGDNVTIRFSTNNPGPWFLHCHIDFHLEAGFAVVMAEDVPDIPSANPVPQAWSNLCPTYNALSSDDQ
modifications: Lentinus sp
laccase activity in culture media [8]: about 400 U/L
